From patent publication US20160264925A1, “Reagents for Lysis of Bacterial Cells” (Roche Diagnostics Operations, Inc., priority 2009, published 2016)

Assays:
[1] = tested on: Staphylococcus carnosus BMTU 7329; test: Lysis of microbial cells in suspension, microscopic assessment (SYTO 9 staining): Gram-positive; assay type: cell-based; conditions: for lysis of Gram-positive cell walls, summary in words: reagent and concentration as in Tables 1 and 2 (Example 4)
Protocol: (§1) Cell suspensions containing between about 10^7 and about 10^8 cells/ml were prepared.
(§2) The LIVE/DEAD® BacLight Bacterial Viability Kits supplied by Invitrogen utilize mixtures of the SYTO® 9 green-fluorescent nucleic acid stain (Invitrogen) and the red-fluorescent nucleic acid stain, propidium iodide. These stains differ both in their spectral characteristics and in their ability to penetrate healthy bacterial cells. When used alone, the SYTO® 9 stain generally labels all bacteria in a population—those with intact membranes and those with damaged membranes. In contrast, propidium iodide penetrates only bacteria with damaged membranes, causing a reduction in the SYTO® 9 stain fluorescence when both dyes are present.
(§3) Each mixture was incubated for 15 min at 56° C.
(§4) For the lysis experiments, all possible combinations of lysis buffers L1.1 to L11.1 with cell suspensions (A), (B), and (C) were examined.
(§5) An incubated cell suspension with bacteria was scored as a “positive” lysate if in the incubated mixture SYTO® 9 stainable morphological structures corresponding to the respective bacterial cells were not detectable. Otherwise, when SYTO® 9 stainable morphological structures were still present, the incubated cell suspension was scored as “negative”. In an analogous way, a cell suspension with yeast cells was scored, however based on Calcofluor™ White M2R staining.
(§6) In each experiment a direct comparison was made using the fluorescent label on an untreated but similarly diluted cell suspension as a reference. In order to exclude any influence of a compound in the lysis reagents on fluorescence, any presence or absence of morphological structures corresponding to the respective microbial cells was verified using light microscopy.

[2] = tested on: Escherichia coli BMTU 3294; test: Lysis of microbial cells in suspension, microscopic assessment (SYTO 9 staining): Gram-negative; assay type: cell-based; conditions: for lysis of Gram-negative cell walls, summary in words: reagent and concentration as in Tables 1 and 2 (Example 4)
Protocol: as §1, §2, §3, §4, §5, §6

[3] = about 2.25 M in the mixture with the bacterial suspension

Molecule	destruction of Gram-positive cell walls ([1]; 375 mM in the mixture)	destruction of Gram-positive cell walls [1, 3]	destruction of Gram-negative cell walls ([2]; 375 mM in the mixture)	destruction of Gram-negative cell walls [2, 3]	destruction of Gram-positive cell walls ([1]; 247.5 mM (or lower))	destruction of Gram-negative cell walls ([2]; 247.5 mM (or lower))	lysis of Gram-positive cell walls, summary in words [1]	lysis of Gram-negative cell walls, summary in words [2]	further results
N#CS.N=C(N)N [GuaSCN, Guanidine thiocyanate, reference compound]	ineffective	destroyed	ineffective	destroyed					
1-butyl-3-methyl-imidazolium-octylsulfate					falls short of destroying bacterial cell walls	falls short of destroying bacterial cell walls			destruction of Gram-positive cell walls ([1]; any concentration tested): no concentration was found; destruction of Gram-negative cell walls ([2]; higher than 247.5 mM and up to 375 mM): capable of destroying the cell walls of Gram-negative bacteria
1-butyl-3-methyl-imidazolium-2(2-methoxyethoxy)ethylsulfate [ECOENG™41M]							destroy the cell walls of both Gram-positive and Gram-negative cells	destroy the cell walls of both Gram-positive and Gram-negative cells	concentration required to destroy Gram-positive cell walls, relative to BMIM-SCN (about 2.25 M in the mixture) ([1]; lysis reagent L2.1): a quarter of this concentration; concentration required to destroy Gram-negative cell walls together with Gram-positive, relative to BMIM-SCN (about 2.25 M in the mixture) ([2]; lysis reagent L2.1): a quarter of this concentration
Cc1ccc(S(=O)(=O)[O-])cc1.Cc1ccc(S(=O)(=O)[O-])cc1.Cn1cc[n+](CCCC[n+]2ccn(C)c2)c1 [MITS, 1-methyl-1-[4-(3-methyl-3H-imidazol-1-ium)-but-1-yl]-3H-imidazolium-di(toluylsulfate)]					neither Gram-negative nor Gram-positive cell walls were destroyed	neither Gram-negative nor Gram-positive cell walls were destroyed			destruction of Gram-positive cell walls ([1]; 247.5 mM increased by about 50% or more): destruction of Gram-positive cell walls
1-butyl-3-methyl-imidazolium-thiocyanate [BMIM-SCN]	falls short of destroying bacterial cell walls	destroyed	falls short of destroying bacterial cell walls	destroyed			destroy the cell walls of both Gram-positive and Gram-negative cells	destroy the cell walls of both Gram-positive and Gram-negative cells	destruction of Gram-negative cell walls ([2]; about 562.5 mM in the mixture): lysed
